Experiment: Solubility of CoQ10 in fish oil and fish oil concentrates under different conditions and time of storage
Format: physicochemical
Details: for Solubility of CoQ10 in 1812TG, confirmed solubility / Solubility of CoQ10 in 4020EE, confirmed solubility: heating prior storage
Text: CoQ10 was solubilized in 0355 EE (fish oil concentrate in ethylester form containing 3% EPA and 55% DHA), 4020EE (fish oil concentrate in ethylester form containing 40% EPA and 20% DHA) and 1812TG (purified fish oil containing 18% EPA and 12% of DHA) and the final solubility was examined under different conditions and time of storage. All of these starting oils were manufactured by Ocean Nutrition Canada, Mulgrave, NS).

Solubility of CoQ10 in 0355EE, confirmed solubility (0355EE (ethylester concentrate, 3% EPA, 55% DHA), solubility at RT, no heating prior storage): 6.6 %, w/w
Solubility of CoQ10 in 0355EE, confirmed solubility (0355EE, solubility at 50° C.): 27%, w/w
Solubility of CoQ10 in 0355EE, confirmed solubility (0355EE, storage at 4° C. (line after solubility at 50° C.)): 3.2%, w/w
Solubility of CoQ10 in 0355EE, confirmed solubility (0355EE, storage at 4° C. for 24 h, no heating prior storage): 2.5 %, w/w
Solubility of CoQ10 in 1812TG, confirmed solubility (1812TG (purified fish oil, 18% EPA, 12% DHA), solubility at 50° C.): 11 %, w/w
Solubility of CoQ10 in 1812TG, confirmed solubility (1812TG, storage at 4° C.): <2.9 %, w/w
Solubility of CoQ10 in 4020EE, confirmed solubility (4020EE (ethylester concentrate, 40% EPA, 20% DHA), solubility at 50° C.): 9 %, w/w
Solubility of CoQ10 in 4020EE, confirmed solubility (4020EE, storage at 4° C.): 5.7 %, w/w
Structure (SMILES): COC1=C(OC)C(=O)C(C/C=C(\C)CC/C=C(\C)CC/C=C(\C)CC/C=C(\C)CC/C=C(\C)CC/C=C(\C)CC/C=C(\C)CC/C=C(\C)CC/C=C(\C)CCC=C(C)C)=C(C)C1=O [CoQ10ox, 2,3-dimethyoxy-5-methyl-6-decaprenyl-1,4-benzoquinone]
